Reference: the NIST ThermoML archive (doi:10.1016/j.jct.2015.06.017)
Numbers after ± are expanded uncertainties.

Conditions: Liquid, Closed cell (Static) method

C=CC [propene]
vapor or sublimation pressure (282.97 K): 769 ± 8 kPa
vapor or sublimation pressure (287.57 K): 873 ± 8 kPa
vapor or sublimation pressure (293.48 K): 1028 ± 8 kPa
vapor or sublimation pressure (298.02 K): 1152 ± 8 kPa
vapor or sublimation pressure (302.83 K): 1291 ± 9 kPa
vapor or sublimation pressure (307.67 K): 1458 ± 9 kPa
vapor or sublimation pressure (314.06 K): 1691 ± 9 kPa
vapor or sublimation pressure (318.36 K): 1854 ± 9 kPa
vapor or sublimation pressure (322.91 K): 2039 ± 9 kPa
vapor or sublimation pressure (327.27 K): 2239 ± 9 kPa
